Experimental findings from US10844023B2 (Washington University, priority 2017, dated 2020) are described below.

This experiment has as its system Mfn2 null MEFs. Nature of the experiment: Mitochondrial elongation (aspect ratio) fusogenicity assay. On the set-up: % long compare to B: dose or concentration left out as unconfirmed. Format: cell-based, mouse. The conditions noted are these: mitochondrial elongation relative to Cpd B (B01 = 100); Mfn2 null MEFs, compound overnight as printed (FIG. 48). The source says:
A cultured murine embryonic fibroblast assay system was used in which mitochondrial elongation (an increase in aspect ratio) reflects enhanced mitochondrial fusion.
A pharmacophore model was generated based on the interactions of HR1 and HR2 domains in the calculated structural model of Mfn2 in the closed conformation. The key features included hydrophobic interactions involving Mfn2 HR1: Val372 and Met376, and aromatic interactions and hydrogen bonding involving Mfn2 HR1 His380. […] A library comprising ˜14 million commercially available compounds was prepared in silico and evaluated using PHASE to fit these criteria. Top ranked hits were clustered, and filtered based on pharmacological properties using Qikprop. The top 55 (see TABLE 4) commercially available small molecules conforming to the model were selected for functional screening and purchased in 1 mg aliquots. […] Images were acquired by confocal microscopy. Each compound was scored for fusogenicity (see e.g., FIG. 24A) and % cell death (see e.g., FIG. 24B).
Cells were excited with 408 nm (Hoechst), […] (MitoTracker Green and Calcein AM, GFP), or 637 nm (TMRE, MitoTracker Orange, Ethidium homodimer-1, and AF594-Dextran) laser diodes. For mitochondrial elongation studies mitochondrial aspect ratio (long axis/short axis) was calculated using automated edge detection and Image J software. Mitochondrial depolarization was calculated as % of green mitochondria visualized on MitoTracker Green and TMRE merged images, expressed as green/(green+yellow mitochondria)×100.

Consider `COc1ccc(NC(=O)c2c(NC(=O)CSc3nnc(C4CC4)n3C)sc3c2CCCC3)cc1` [1-E4, 2-{2-[(5-cyclopropyl-4-methyl-4H-1,2,4-triazol-3-yl)sulfanyl]acetamido}-N-(4-methoxyphenyl)-4,5,6,7-tetrahydro-1-benzothiophene-3-carboxamide], for which the “% long compare to B” value amounted to 17%.
Take `NC(=O)c1c(NC(=O)CSc2nnc(C3CC3)n2-c2ccccc2)sc2c1CCCC2` [1-E5, 2-{2-[(5-cyclopropyl-4-phenyl-4H-1,2,4-triazol-3-yl)sulfanyl]-acetamido}-4,5,6,7-tetrahydro-1-benzothiophene-3-carboxamide]: the “% long compare to B” value is listed as −3%.
Consider `CCn1c(SCC(=O)Nc2sc3c(c2C(=O)NCc2ccccc2)CCCC3)nnc1C1CC1` [1-E6, N-benzyl-2-{2-[(5-cyclopropyl-4-ethyl-4H-1,2,4-triazol-3-yl)sulfanyl]acetamido}-4,5,6,7-tetrahydro-1-benzothiophene-3-carboxamide], for which the “% long compare to B” value turned out to be 10%.
The result for `Cc1ccccc1-c1nnc(SCC(=O)Nc2sc3c(c2C(N)=O)CCC3)n1C` [1-E7, 2-(2-{[4-methyl-5-(2-methyl-phenyl)-4H-1,2,4-triazol-3-yl]sulfanyl}acetamido)-4H,5H,6H-cyclopenta[b]-thiophene-3-carboxamide] reads 9%; that for `CC(Sc1nccn1-c1cccc(F)c1)C(=O)Nc1sc2c(c1C(N)=O)CCC2` (stereo not shown) [1-E8, 2-(2-{[1-(3-fluorophenyl)-1H-imidazol-2-yl]sulfanyl}pro-panamido)-4H,5H,6H-cyclo-penta[b]thiophene-3-carboxamide], 5%.
The result for `CC(Sc1nnc(CC2CCS(=O)(=O)C2)n1C)C(=O)Nc1sc2c(c1C(N)=O)CCC2` (stereo not shown) [1-E9, 2-[2-({5-[(1,1-dioxo-1λ^6-thiolan-3-yl)methyl]-4-methyl-4H-1,2,4-triazol-3-yl}sulfanyl)propanamido]-4H,5H,6H-cyclopenta[b]thio-phene-3-carboxamide] reads 0%.
The result for `Cc1cccc(-n2ccnc2SC(C)C(=O)Nc2sc3c(c2C(N)=O)CCC3)c1C` (stereo not shown) [1-E10, 2-(2-{[1-(2,3-dimethylphenyl)-1H-imidazol-2-yl]sulfanyl}pro-panamido)-4H,5H,6H-cyclo-penta[b]thiophene-3-carboxamide] reads 21%; that for `NC(=O)c1c(NC(=O)CSc2nnc(-c3ccco3)n2-c2ccccc2)sc2c1CCC2` [1-F1, 2-(2-{[5-(furan-2-yl)-4-phenyl-4H-1,2,4-triazol-3-yl]sulfanyl}-acetamido)-4H,5H,6H-cyclo-penta[b]thiophene-3-carboxamide], 21%.
As for `C=CCn1c(SCC(=O)Nc2sc3c(c2C(N)=O)CCC3)nnc1-c1ccccc1` [1-F2, 2-(2-{[5-phenyl-4-(prop-2-en-1-yl)-4H-1,2,4-triazol-3-yl]sulfanyl}acetamido)-4H,5H,6H-cyclopenta[b]thio-phene-3-carboxamide], the “% long compare to B” value is −10%.
Regarding `Cc1ccc(-n2c(C)nnc2SCC(=O)Nc2sc3c(c2C(N)=O)CCC3)cc1` [1-F3, 2-(2-{[5-methyl-4-(4-methylphenyl)-4H-1,2,4-triazol-3-yl]sulfanyl}acetamido)-4H,5H,6H-cyclopenta[b]-thiophene-3-carboxamide], the “% long compare to B” value was 13%.
The same measure for `COc1ccccc1-n1c(C)nnc1SCC(=O)Nc1sc2c(c1C(N)=O)CCCC2` [1-F4, 2-(2-{[4-(2-methoxyphenyl)-5-methyl-4H-1,2,4-triazol-3-yl]sulfanyl}acetamido)-4,5,6,7-tetrahydro-1-benzothiophene-3-carboxamide]: 22%; for `CCn1c(SCC(=O)Nc2sc3c(c2C(N)=O)CCCC3)nnc1C1CC1` [1-F5, 2-{2-[(5-cyclopropyl-4-ethyl-4H-1,2,4-triazol-3-yl)sulfanyl]acet-amido}-4,5,6,7-tetrahydro-1-benzothiophene-3-carboxamide]: −7%.
Take `CC(c1nnc(SCC(=O)Nc2sc3c(c2C(N)=O)CCC3)n1-c1ccc(F)cc1)N(C)C` (stereo not shown) [1-F6, 2-[2-({5-[1-(dimethylamino)ethyl]-4-(4-fluorophenyl)-4H-1,2,4-triazol-3-yl}sulfanyl)acetamido]-4H,5H,6H-cyclopenta[b]thio-phene-3-carboxamide]: the “% long compare to B” value is given as 30%.
The same measure for `CC(Sc1nnc(-c2cccs2)n1-c1ccccc1)C(=O)Nc1sc2c(c1C(N)=O)CCC2` (stereo not shown) [1-F7, 2-(2-{[4-phenyl-5-(thiophen-2-yl)-4H-1,2,4-lriazol-3-yl]sul-fanyl}propanamido)-4H,5H,6H-cyclopenta[b]thiophene-3-carboxamide]: −26%; for `CC(Sc1nnc(-c2c[nH]c3ccccc23)n1C1CC1)C(=O)Nc1sc2c(c1C(N)=O)CCC2` (stereo not shown) [1-F8, 2-(2-{[4-cyclopropyl-5-(1H-indol-3-yl)-4H-1,2,4-triazol-3-yl]sulfanyl}propanamido)-4H,5H,6H-cyclopenta[b]-thiophene-3-carboxamide]: 2%.
For `C=CCn1c(SCC(=O)Nc2sc3c(c2C(N)=O)CCCC3)nnc1C1CC1` [1-F9, 2-(2-{[5-cyclopropyl-4-(prop-2-en-1-yl)-4H-1,2,4-triazol-3-yl]sulfanyl}acet-amido)-4,5,6,7-tetrahydro-1-benzothiophene-3-carboxamide], the “% long compare to B” value worked out at 202%.
The result for `CC(Sc1nnc(-c2cccnc2)n1Cc1ccco1)C(=O)Nc1sc2c(c1C(N)=O)CCC2` (stereo not shown) [1-F10, 2-[2-({4-[(furan-2-yl)methyl]-5-(pyridin-3-yl)-4H-1,2,4-triazol-3-yl}sulfanyl)propanamido]-4H,5H,6H-cyclopenta[b]-thiophene-3-carboxamide] reads 29%; that for `NC(=O)c1c(NC(=O)CSc2nnc(-c3cccnc3)n2-c2ccccc2)sc2c1CCC2` [1-F11, 2-(2-{[4-phenyl-5-(pyridin-3-yl)-4H-1,2,4-triazol-3-yl]sulfanyl]acet-amido)-4H,5H,6H-cyclopenta[b]-thiophene-3-carboxamide], 13%; that for `Cc1ccccc1-n1c(SCC(=O)Nc2sc3c(c2C(N)=O)CCC3)nnc1-c1cccnc1` [1-G1, 2-(2-{[4-(2-methylphenyl)-5-(pyridin-3-yl)-4H-1,2,4-triazol-3-yl]sulfanyl}acet-amido)-4H,5H,6H-cyclopenta[b]thiophene-3-carboxamide], 141%.
For the molecule `NC(=O)c1c(NC(=O)CSc2nnc(-c3ccccc3)n2-c2ccccc2)sc2c1CCCC2` [1-G2, 2-{2-[(diphenyl-4H-1,2,4-triazol-3-yl)sulfanyl]acetamido}-4,5,6,7-tetrahydro-1-benzothiophene-3-carboxamide], the “% long compare to B” value stood at 20%.
For `CC(Sc1nnc(C2CC2)n1-c1ccccc1)C(=O)Nc1sc2c(c1C#N)CCCCC2` (stereo not shown) [1-G5, N-{3-cyano-4H,5H,6H,7H,8H-cyclohepta[b]thiophen-2-yl}-2-[(5-cyclopropyl-4-phenyl-4H-1,2,4-triazol-3-yl)sulfanyl]propana-mide], the “% long compare to B” value is 7%.
With `CC(Sc1nnc(Cc2cccs2)n1C1CC1)C(=O)Nc1sc2c(c1C(N)=O)CCC2` (stereo not shown) [1-G6, 2-[2-({4-cyclopropyl-5-[(thiophen-2-yl)methyl]-4H-1,2,4-triazol-3-yl}sulfanyl)propanamido]-4H,5H,6H-cyclopenta[b]thio-phene-3-carboxamide], the “% long compare to B” value came to 9%.
`CC(Sc1nccn1Cc1ccccc1)C(=O)Nc1sc2c(c1C(N)=O)CCC2` (stereo not shown) [1-G7, 2-{2-[(1-benzyl-1H-imidazol-2-yl)sulfanyl]propanamido}-4H,5H,6H-cyclopenta[b]thio-phene-3-carboxamide]: the “% long compare to B” value is on record as 3%.
On to `CC(Sc1nncn1-c1ccccc1)C(=O)Nc1sc2c(c1C(N)=O)CCC2` (stereo not shown) [1-G8, 2-{2-[(4-phenyl-4H-1,2,4-triazol-3-yl)sulfanyl]propanamido}-4H,5H,6H-cyclopenta[b]thio-phene-3-carboxamide], for which the “% long compare to B” value amounted to 14%.
As for `Cc1nnc(SCC(=O)Nc2sc3c(c2C(N)=O)CCC3)n1-c1ccccc1` [1-H3, 2-{2-[(5-methyl-4-phenyl-4H-1,2,4-triazol-3-yl)sulfanyl]acet-amido}-4H,5H,6H-cyclo-penta[b]thiophene-3-carboxamide], the “% long compare to B” value is 10%.
The same measure for `NC(=O)c1c(NC(=O)CSc2nnc(-c3ccncc3)n2-c2ccc(F)cc2)sc2c1CCC2` [1-H5, 2-(2-{[4-(4-fluorophenyl)-5-(pyridin-4-yl)-4H-1,2,4-triazol-3-yl]sulfanyl]acetamido)-4H,5H,6H-cyclopenta[b]thio-phene-3-carboxamide]: 23%.
On to `CC(Sc1nnc(Cc2ccccc2)n1C)C(=O)Nc1sc2c(c1C(N)=O)CCC2` (stereo not shown) [1-H6, 2-{2-[(5-benzyl-4-methyl-4H-1,2,4-triazol-3-yl)sulfanyl]propanamido}-4H.5H.6H-cyclopenta[b]-thiophene-3-carboxamide], for which the “% long compare to B” value was 8%.
The same measure for `Cn1c(Cc2ccccc2)nnc1SCC(=O)Nc1sc2c(c1C(N)=O)CCC2` [1-H7, 2-{2-[(5-benzyl-4-methyl-4H-1,2,4-triazol-3-yl)sulfanyl]-acetamido}-4H,5H,6H-cyclopenta[b]thiophene-3-carboxamide]: 6%.
